Among the test systems are 786-0 renal; ACHN renal; HCT-116 colon; OVCAR-3 ovarian; RPMI-8226 leukemia; SW-620 colon; NCI-H522 lung; SF-295 CNS; EKVX NSCLC.
Holding throughout (assay): NCI anticancer screen, dose series, 48 h

Where “and” joins values, the source holds several entries; their conditions need not be identical. Equal entries are not always repeated.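 Each compound was tested at five concentrations against cells in 96-well plates for 48 hours. Here, GI50 denotes the concentration required for 50% inhibition of growth. TGI: concentration producing complete growth inhibition.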

For `COc1ccc(/C=C2\CCCC3=C2NC(C)=NC3c2ccc(OC)c(OC)c2)cc1OC` (configuration not stated), the GI50 in the experiment on 786-0 renal was 33700 nM; with ACHN renal, 6.74 µM; in the experiment on HCT-116 colon, 2390 nM; with OVCAR-3 ovarian it was 5470 nM; in the experiment on RPMI-8226 leukemia, 848 nM; in the experiment with SW-620 colon, 7690 nM. The TGI with 786-0 renal is more than 100 µM; in the experiment on ACHN renal, more than 100 µM; in the experiment on HCT-116 colon, 22.1 µM; in the experiment with OVCAR-3 ovarian, more than 100 µM; in the experiment with RPMI-8226 leukemia it was 56.3 µM; in the experiment on SW-620 colon, more than 100 µM.
On to `Fc1ccc(Nc2nc(NCCNc3ccnc4cc(Cl)ccc34)nc(N3CCOCC3)n2)cc1`, for which the GI50 was 3350 nM in the experiment with 786-0 renal; 7.06 µM in the experiment with ACHN renal; 4820 nM in the experiment on HCT-116 colon; 4.25 µM in the experiment on NCI-H522 lung; 11900 nM in the experiment on OVCAR-3 ovarian; 3150 nM in the experiment on RPMI-8226 leukemia. The GI50 in the experiment on SF-295 CNS is 4.19 µM; with SW-620 colon it was 4210 nM. The TGI in the experiment on 786-0 renal is 15.3 µM; in the experiment on ACHN renal, 20.2 µM; in the experiment on HCT-116 colon, 17 µM; with NCI-H522 lung, 15.3 µM; in the experiment on OVCAR-3 ovarian, 24.5 µM; with RPMI-8226 leukemia, 14.6 µM. For the same compound, the figures for the TGI in the experiment with SF-295 CNS and in the experiment on SW-620 colon were 15.3 µM and 16.4 µM, respectively.
Turning to `COc1ccccc1-c1c(C)nn2c(NCc3ccccn3)cc(C)nc12`, the GI50 in the experiment on 786-0 renal is 36400 nM; in the experiment with ACHN renal, 3.51 µM; in the experiment with HCT-116 colon, 3750 nM; in the experiment with NCI-H522 lung, 21.3 µM; in the experiment on OVCAR-3 ovarian it was 2580 nM; in the experiment on RPMI-8226 leukemia, 13600 nM. In addition, the GI50 with SF-295 CNS was 21.2 µM; in the experiment on SW-620 colon it was 14900 nM. Further, the TGI with 786-0 renal, in the experiment with ACHN renal, in the experiment with HCT-116 colon, with NCI-H522 lung, in the experiment on OVCAR-3 ovarian and with RPMI-8226 leukemia was more than 50 µM each time. Also, the TGI in the experiment with SF-295 CNS and with SW-620 colon was more than 50 µM throughout.
Consider `CCOC(=O)N1CCN(S(=O)(=O)c2oc(-c3ccc(Cl)cc3)nc2C#N)CC1`, for which the GI50 was 1650 nM in the experiment with 786-0 renal; 1.76 µM with ACHN renal; 9710 nM with EKVX NSCLC; 1740 nM in the experiment with HCT-116 colon; 0.956 µM with NCI-H522 lung; 1790 nM in the experiment on OVCAR-3 ovarian. For the same compound, the GI50 was 28.2 µM in the experiment with SF-295 CNS and 1690 nM with SW-620 colon. The TGI in the experiment with 786-0 renal was 3.24 µM; in the experiment on ACHN renal, 3.15 µM; with EKVX NSCLC, 27.2 µM; in the experiment with HCT-116 colon, 3.7 µM; with NCI-H522 lung it was 3.07 µM; in the experiment on OVCAR-3 ovarian, 3.38 µM. In addition, the TGI was more than 100 µM in the experiment with SF-295 CNS and 3.75 µM in the experiment with SW-620 colon.
As to `COc1ccc(-c2ccc(/C=N/n3c(COc4ccc(Cl)cc4)n[nH]c3=S)o2)c([N+](=O)[O-])c1`, the GI50 with 786-0 renal is 18400 nM; with ACHN renal, 17.2 µM; in the experiment with EKVX NSCLC it was 12400 nM; in the experiment on HCT-116 colon, 16800 nM; in the experiment with NCI-H522 lung it was 25.7 µM. The TGI was 44.7 µM in the experiment on 786-0 renal; 39.6 µM in the experiment on ACHN renal; 54.1 µM with EKVX NSCLC; 40.7 µM in the experiment on HCT-116 colon; more than 100 µM in the experiment on NCI-H522 lung.
As for `COc1cnc2c(c1)C(=O)c1c-2n(CCCN2CCCC2)c(=O)c2cc(Cl)ccc12`, the GI50 with 786-0 renal is 1470 nM; in the experiment on ACHN renal, 0.0753 µM; with EKVX NSCLC, 2180 nM; in the experiment with NCI-H522 lung it was 0.27 µM; in the experiment with RPMI-8226 leukemia it was 5260 nM; with SF-295 CNS it was 0.0278 µM. Also, the GI50 in the experiment on SW-620 colon was 31.3 nM. The TGI in the experiment with 786-0 renal was found to be 9.66 µM; in the experiment on ACHN renal, 6.42 µM; in the experiment with EKVX NSCLC it was 11.3 µM; in the experiment on NCI-H522 lung, 13.8 µM; in the experiment on RPMI-8226 leukemia, 16.3 µM; in the experiment on SF-295 CNS, 6.8 µM. The same compound displayed a TGI with SW-620 colon of 8.09 µM.
Consider `Nc1nc(Nc2cccc(F)c2)nc2ccccc12`, for which the GI50 in the experiment with 786-0 renal was 17400 nM; in the experiment with ACHN renal it was 20.4 µM; with HCT-116 colon, 18100 nM; with NCI-H522 lung it was 23.9 µM; with OVCAR-3 ovarian, 21100 nM; in the experiment with RPMI-8226 leukemia, 23100 nM. Further, the GI50 was 17.8 µM in the experiment on SF-295 CNS and 17100 nM with SW-620 colon. Also, the TGI in the experiment on 786-0 renal was 33.6 µM; in the experiment with ACHN renal, 76.8 µM; in the experiment on HCT-116 colon it was 46.4 µM; in the experiment on NCI-H522 lung it was 54 µM; in the experiment with OVCAR-3 ovarian, 49.6 µM; in the experiment with RPMI-8226 leukemia, 71.1 µM. Also, the TGI was determined as 42.7 µM with SF-295 CNS and 36.6 µM with SW-620 colon.
Turning to `S=c1ssc(Sc2ccccn2)c1Cl`, the GI50 in the experiment with 786-0 renal was 4090 nM; in the experiment on ACHN renal, 4.62 µM; in the experiment on EKVX NSCLC, 12500 nM; with NCI-H522 lung, 6.99 µM; with OVCAR-3 ovarian, 13200 nM; in the experiment on RPMI-8226 leukemia it was 1560 nM. In addition, the GI50 in the experiment on SF-295 CNS was 16.5 µM. Also, the TGI amounted to 14.4 µM in the experiment on 786-0 renal; 16.7 µM with ACHN renal; 30.3 µM in the experiment on EKVX NSCLC; 21.9 µM in the experiment with NCI-H522 lung; 25.9 µM in the experiment on OVCAR-3 ovarian; 4.14 µM with RPMI-8226 leukemia. Moreover, the TGI in the experiment on SF-295 CNS worked out at 34.5 µM.
For the compound `C/C1=C\CC[C@@](C)(O)[C@@H]2CC3[C@@H](OC(=O)C34CC4)[C@@H](O2)[C@H](C)CCC1` (some centres not stated), the GI50 in the experiment with 786-0 renal was 16200 nM; with ACHN renal, 16.9 µM; in the experiment with HCT-116 colon it was 16500 nM; in the experiment on NCI-H522 lung it was 12.7 µM; in the experiment with OVCAR-3 ovarian, 20100 nM; with RPMI-8226 leukemia, 30100 nM. Also, the values for the GI50 in the experiment with SF-295 CNS and in the experiment with SW-620 colon were 17.3 µM and 35200 nM, respectively. Moreover, the TGI was 29.8 µM in the experiment on 786-0 renal; 35.1 µM in the experiment on ACHN renal; 30.1 µM in the experiment with HCT-116 colon; 28.5 µM in the experiment on NCI-H522 lung; 39.6 µM in the experiment on OVCAR-3 ovarian; more than 100 µM in the experiment with RPMI-8226 leukemia. For the same compound, the TGI was 34.4 µM with SF-295 CNS and more than 100 µM in the experiment on SW-620 colon.
For `CC[CH2][Pb]([CH2]CC)([CH2]CC)[NH]S(=O)(=O)c1ccc(C)cc1`, the GI50 in the experiment on 786-0 renal is 57.4 nM; in the experiment with ACHN renal, 0.0668 µM; with EKVX NSCLC it was 73.9 nM; in the experiment with HCT-116 colon, 45.2 nM; in the experiment with OVCAR-3 ovarian it was 24 nM; in the experiment with RPMI-8226 leukemia it was 25.9 nM. Besides, the GI50 is 0.0898 µM in the experiment with SF-295 CNS and 36.4 nM in the experiment on SW-620 colon. For the same compound, the TGI was 0.134 µM with 786-0 renal; 0.2 µM with ACHN renal; 0.317 µM in the experiment on EKVX NSCLC; 0.179 µM with HCT-116 colon; 0.0625 µM in the experiment with OVCAR-3 ovarian; 0.131 µM with RPMI-8226 leukemia. Besides, the TGI in the experiment on SF-295 CNS worked out at 0.203 µM; in the experiment with SW-620 colon, 0.345 µM.
As for `COc1ccc2c(c1)nc(N)c1c3cccnc3cn21`, the GI50 was 115 nM with 786-0 renal; 0.0938 µM in the experiment on ACHN renal; 2910 nM with EKVX NSCLC; 47.1 nM in the experiment with HCT-116 colon; 0.0411 µM in the experiment with NCI-H522 lung; 54.6 nM in the experiment on RPMI-8226 leukemia. In addition, the GI50 in the experiment on SF-295 CNS is 0.0365 µM; in the experiment with SW-620 colon, 37.3 nM. Also, the TGI in the experiment with 786-0 renal is 16.7 µM; with ACHN renal, 15 µM; in the experiment on EKVX NSCLC, more than 100 µM; in the experiment with HCT-116 colon, more than 36.7 µM; in the experiment with NCI-H522 lung, 3.45 µM; with RPMI-8226 leukemia it was 34.2 µM. Moreover, the TGI in the experiment on SF-295 CNS worked out at 1.13 µM; with SW-620 colon, 14.5 µM.
For the compound `CCCCCc1c(C)[nH]c(/C=C2\N=C(c3ccc[nH]3)C=C2Oc2ccc(Cl)cc2)c1C`, the GI50 with 786-0 renal is 76.3 nM and 46.1 nM; in the experiment on ACHN renal, 0.196 µM and 0.0397 µM; with HCT-116 colon, 39.2 nM and 14.7 nM; with NCI-H522 lung, 0.0455 µM and 0.0305 µM; in the experiment with OVCAR-3 ovarian it was 107 nM and 34.2 nM; in the experiment on RPMI-8226 leukemia, 60.2 nM and 16.3 nM. Also, the GI50 in the experiment on SF-295 CNS is 0.17 µM and 0.0832 µM; in the experiment on SW-620 colon, 38.7 nM and 22.8 nM. The TGI in the experiment with 786-0 renal was 0.326 µM and 0.512 µM; in the experiment with ACHN renal, 1.22 µM and 2.11 µM; with HCT-116 colon, 1.22 µM and 1.18 µM; in the experiment with NCI-H522 lung it was 1.02 µM and 1.28 µM; in the experiment with OVCAR-3 ovarian, 0.516 µM and 0.45 µM; in the experiment with RPMI-8226 leukemia it was 1.23 µM and 1.57 µM. The TGI is 0.57 µM and 1.1 µM in the experiment with SF-295 CNS; 2.58 µM and 1.29 µM with SW-620 colon.
Consider `C[C@H](CSC(=O)c1ccccc1)C(=O)N1c2ccccc2C[C@H]1C(=O)O`, for which the TGI is more than 10 µM with 786-0 renal; more than 100 µM in the experiment on ACHN renal; more than 100 µM in the experiment with EKVX NSCLC; more than 100 µM in the experiment with HCT-116 colon; more than 100 µM in the experiment with NCI-H522 lung; more than 100 µM with OVCAR-3 ovarian. Further, the TGI with SF-295 CNS and in the experiment with SW-620 colon was more than 100 µM each time.
As for `CS(=O)(=O)Nc1cc(-c2ccc3ncnc(Nc4ccc5c(cnn5Cc5ccc(F)cc5)c4)c3c2)cnc1Cl`, the GI50 in the experiment on 786-0 renal was 2220 nM; in the experiment on ACHN renal, 2.99 µM; in the experiment with EKVX NSCLC, 2210 nM; in the experiment on HCT-116 colon it was 2920 nM; in the experiment with NCI-H522 lung, 1.79 µM; in the experiment with OVCAR-3 ovarian, 1100 nM. Besides, the GI50 is 2.06 µM with SF-295 CNS and 2500 nM with SW-620 colon. The TGI with 786-0 renal was 19.9 µM; in the experiment on ACHN renal, more than 100 µM; in the experiment with EKVX NSCLC it was 18.4 µM; in the experiment with HCT-116 colon it was 21.7 µM; in the experiment with NCI-H522 lung, 12.8 µM; with OVCAR-3 ovarian, 3.3 µM. The TGI was determined as 9.61 µM in the experiment on SF-295 CNS and 12.8 µM in the experiment with SW-620 colon.

Source of the values: PubChem BioAssay (NCI).
